# Results: patent US10683267B1, “Antidiabetic compounds” (King Abdulaziz University, priority 2019, dated 2020)
# pIC50: −log10 of the molar value. “Also recorded” adds a separate entry of the source. Read-outs that look alike come from different tables or passages of the source. Marks after values point to notes of the source that are not given here.
# Assays:
# diabetic mice [1] = test: Fasting blood glucose of diabetic mice treated daily for 6 consecutive days; format: in vivo; settings: 50 mg/kg oral daily
# Description: (§1) The Biochemical and Research Ethical Committee of King Abulaziz University (Jeddah, Saudi Arabia), in accordance with the NIH guidelines, approved all procedures, and the animals received human care during the experimental period. Experiments were carried out using adult male Swiss albino mice (SWR), of 8-9 weeks age and 30-35 g weight. Animals were purchased from the animal house of the King Fahed Medical Research center (KFMRC), Jeddah, Saudi Arabia. Mice were kept at a constant temperature of 24-25° C. and were subjected to a controlled 12 h light-dark cycle; they had free access to water and pelleted diet ad libitum.
# (§2) Nicotinamide (210 mg/kg b.w.), dissolved in saline, was injected intraperitoneally 15 min before the intraperitoneal injection of Streptozotocin (STZ) (Sigma, 180 mg/kg b.w.), which was freshly prepared in citrate buffer (pH 4.5). Control animals received both vehicles. During the experimental period, animals' food intake and body weight gain were monitored once a week.
# (§3) On the same groups that received the single dose treatment, the tested compounds were given daily by oral gavage for six consecutive days. On day 6, the overnight fasted diabetic mice were pretreated with the 6th oral dose of the tested compounds. Two hours later, an oral glucose was loaded (2 g/kg/10 ml b.w.). Blood glucose levels were determined using the Accu-check Go®. Samples were collected just before drug administration (Fasting Blood glucose), then 2 h after drug treatment and before glucose administration. Samples collection was continued at 20, 40, 60 and 120 min intervals after glucose loading.
# The oral glucose tolerance test (OGTT) was performed over six days on diabetic mice. The glucose level was monitored daily (Table 3). The results were analyzed for activities after a single dose (Table 4) and after the 6th dose of the drug (Table 5).
# diabetic mice [2] = test: Oral glucose tolerance test (OGTT) after multiple doses (6 days) in diabetic mice; format: in vivo; settings: for AUC % change from diabetic control / AUC Δ from diabetic control / Relative potency to vildagliptin / AUC of blood glucose in OGTT (X, mean): 50 mg/kg oral for 6 days; for Relative potency to vildagliptin: OGTT AUC; for AUC of blood glucose in OGTT (X, mean): glucose load 2 g/kg 2 h after 6th dose, AUC 0-120 min; for R.P. to Vildagliptin (6 Days): Table 6, relative potency, B.G. = blood glucose
# Description: as §1, §2, §3
# DPP-IV enzyme = target: T1, DPP-IV enzyme (Homo sapiens, UniProt P27487); test: In vitro DPP-IV inhibition assay (Biovision kit, fluorescence); format: biochemical; settings: for DPP-4 enzyme inhibition activity, in words: SAR discussion; for IC50: Table 2, head prints no unit, nM per Table 6
# T1 construct: purchased Biovision (Milpitas, Calif., USA)
# T1 sequence (P27487 whole entry, species assumed): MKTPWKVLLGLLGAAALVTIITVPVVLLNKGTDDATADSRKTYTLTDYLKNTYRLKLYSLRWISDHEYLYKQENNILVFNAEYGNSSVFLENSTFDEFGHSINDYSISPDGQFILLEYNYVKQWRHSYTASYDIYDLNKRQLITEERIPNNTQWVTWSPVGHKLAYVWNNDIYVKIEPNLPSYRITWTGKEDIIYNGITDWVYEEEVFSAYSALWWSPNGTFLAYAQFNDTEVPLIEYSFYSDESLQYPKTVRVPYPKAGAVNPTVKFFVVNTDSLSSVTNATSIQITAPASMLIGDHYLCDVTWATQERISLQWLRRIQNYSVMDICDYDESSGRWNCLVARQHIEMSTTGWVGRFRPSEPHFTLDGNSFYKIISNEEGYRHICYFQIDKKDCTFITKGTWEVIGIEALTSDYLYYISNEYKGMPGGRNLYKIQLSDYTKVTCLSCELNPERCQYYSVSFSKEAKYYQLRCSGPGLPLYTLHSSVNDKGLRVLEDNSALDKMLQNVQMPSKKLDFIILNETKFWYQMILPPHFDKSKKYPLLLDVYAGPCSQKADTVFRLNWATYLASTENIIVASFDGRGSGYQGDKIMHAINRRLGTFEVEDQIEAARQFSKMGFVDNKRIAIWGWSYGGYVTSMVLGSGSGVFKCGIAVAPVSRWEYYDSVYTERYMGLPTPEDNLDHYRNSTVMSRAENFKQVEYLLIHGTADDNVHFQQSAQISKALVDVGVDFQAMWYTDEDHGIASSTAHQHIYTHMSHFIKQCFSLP
# Description: DPP-IV inhibition assay was conducted using a kit purchased from Biovision (Milpitas, Calif., USA). Briefly, DPP-IV enzyme was diluted with Tris buffer and pipetted 50 μl into glass mini-cells. […] Finally a volume of 25 μl of DPP-IV substrate was added into each tube. The fluorescence generated from hydrolysis of the substrate was read at Ex/Em=360/460 nm using Modulus® single tube multimode reader (Promega, USA). Baseline fluorescence was recorded before incubation (R1) and 20 min after incubation (R2).
# The standard DPP-IV inhibitor drug sitagliptin employed as positive control. […] Sigmoidal concentration-response curves for DPP-IV % inhibition versus log concentration were plotted using Graphpad prism software, version 5.00 (GraphPad Software, Inc. La Jolla, Calif., USA).
# diabetic mice [3] = test: Oral glucose tolerance test (OGTT) after single dose in diabetic mice; format: in vivo; settings: for AUC of blood glucose in OGTT (X, mean): glucose load 2 g/kg 2 h later, AUC 0-120 min; for R.P. to Vildagliptin (Single Dose): Table 6, relative potency, B.G. = blood glucose
# Description: as §1, §2
# Oral glucose tolerance tests were performed in 14 h overnight fasted diabetic mice that were pretreated with a single oral dose of the tested compounds. […] The drugs were suspended in carboxymethyl cellulose (CMC)-Na (1% in distilled water) and the dosing volume was adjusted at 10 mL/kg body weight of the mouse. Then an oral glucose load was administered (2 g/kg) 2 h after drug treatment. Blood glucose levels were determined using the Accu-check Go® (Roche Diagnostics, Michigan, USA). Samples were collected just before drug administration (fasting blood glucose), then at 2 h after drug treatment (immediately before glucose loading). Then blood sample collection was continued at 20, 40, 60 and 120 min intervals after glucose loading.
# Animals were distributed between three categories of groups. Each group is composed of six animals (n=6) […] as follows:
# Category 1: One group of animals were 14 h overnight-fasted normoglycemic mice and vehicle-treated (1% CMC-Na) at a dose of 10 ml/kg.
# Category 2: Another group of animals was overnight fasted diabetic mice received the vehicle (1% CMC-Na) at a dosing volume of 10 ml/kg and served as a negative control.
# Category 4: Animals of these groups were overnight fasted diabetic mice received the tested compounds at a dose of 50 mg/kg in 1% CMC (volume of 10 ml/kg).
# [4] = read-out: enzymatic inhibition value / inhibitory activity (IC50)
% Inhibition @ 100 nM (DPP-IV enzyme; compound at 100 nM) [%],IC50 (DPP-IV enzyme; read-out: IC50) [nM],"pIC50 (DPP-IV enzyme; Table 6, read-out: IC50)",pIC50 (DPP-IV enzyme; [4]),SMILES,"Fasting blood glucose level, Day 1 (diabetic mice [1])","Fasting blood glucose level, Day 2 (diabetic mice [1])","Fasting blood glucose level, Day 3 (diabetic mice [1])","Fasting blood glucose level, Day 4 (diabetic mice [1])","Fasting blood glucose level, Day 5 (diabetic mice [1])","Fasting blood glucose level, Day 6 (diabetic mice [1])",AUC % change from diabetic control (diabetic mice [2]) [%],AUC Δ from diabetic control (diabetic mice [2]) [mg·min/dL],Relative potency to vildagliptin (diabetic mice [2]),"AUC of blood glucose in OGTT (X, mean) (diabetic mice [2])","DPP-4 enzyme inhibition activity, in words (DPP-IV enzyme)",AUC % change from diabetic control (diabetic mice [3]; single oral dose 50 mg/kg) [%],AUC Δ from diabetic control (diabetic mice [3]; single oral dose 50 mg/kg) [mg·min/dL],"AUC of blood glucose in OGTT (X, mean) (diabetic mice [3]; single oral dose 50 mg/kg)",R.P. to Vildagliptin (6 Days) (diabetic mice [2]),R.P. to Vildagliptin (Single Dose) (diabetic mice [3]),further results
65.51,3.02,8.52,8.52,N#Cc1cccc(NC(=O)CNC23CC4CC(CC(C4)C2)C3)c1 [Compound 110],165.00 ± mg/dL,107.20 ± mg/dL,83.00 ± mg/dL,105.60 ± mg/dL,111.80 ± mg/dL,121.40 mg/dL,−30.05,15825,0.83,36830* mg · dL^−1 · min,high affinity towards the enzyme,–,18801,32264* mg · dL^−1 · min,0.27,1.11,–
61.82,7.41,8.13,–,O=C(CNC12CC3CC(CC(C3)C1)C2)Nc1ccc(Cl)cc1 [Compound 112],159.20 ± mg/dL,114.40 ± mg/dL,84.40 ± mg/dL,115.40 ± mg/dL,132.40 ± mg/dL,122.00 ± mg/dL,−16.99,8947,0.46,43708* mg · dL^−1 · min,high DPP-4 inhibition,−37.78,19295,31770* mg · dL^−1 · min,0.79,1.14,–

# Further lines, the molecule ahead of its results:
SMILES,% Inhibition @ 100 nM (DPP-IV enzyme; compound at 100 nM) [%],IC50 (DPP-IV enzyme; read-out: IC50) [nM],"pIC50 (DPP-IV enzyme; Table 6, read-out: IC50)",pIC50 (DPP-IV enzyme; [4]),"Fasting blood glucose level, Day 1 (diabetic mice [1])","Fasting blood glucose level, Day 2 (diabetic mice [1])","Fasting blood glucose level, Day 3 (diabetic mice [1])","Fasting blood glucose level, Day 4 (diabetic mice [1])","Fasting blood glucose level, Day 5 (diabetic mice [1])","Fasting blood glucose level, Day 6 (diabetic mice [1])",AUC % change from diabetic control (diabetic mice [2]) [%],AUC Δ from diabetic control (diabetic mice [2]) [mg·min/dL],Relative potency to vildagliptin (diabetic mice [2]),"AUC of blood glucose in OGTT (X, mean) (diabetic mice [2])","DPP-4 enzyme inhibition activity, in words (DPP-IV enzyme)",AUC % change from diabetic control (diabetic mice [3]; single oral dose 50 mg/kg) [%],AUC Δ from diabetic control (diabetic mice [3]; single oral dose 50 mg/kg) [mg·min/dL],"AUC of blood glucose in OGTT (X, mean) (diabetic mice [3]; single oral dose 50 mg/kg)",R.P. to Vildagliptin (6 Days) (diabetic mice [2]),R.P. to Vildagliptin (Single Dose) (diabetic mice [3]),further results
COC(=O)c1ccccc1NC(=O)CNC12CC3CC(CC(O)(C3)C1)C2 [Compound 16],45.61,–,–,–,174.00 mg/dL,93.80 ± mg/dL,158.40 ± mg/dL,127.40 ± mg/dL,171.00 ± mg/dL,107.60 ± mg/dL,−52.53,28183,1.45,24472* mg · dL^−1 · min,weakened the enzyme inhibition activities,−39.51,20179,30886* mg · dL^−1 · min,–,–,"Relative potency to vildagliptin (diabetic mice [3]; single oral dose 50 mg/kg, OGTT AUC): 1.19"
"O=C(CNC12CC3CC(CC(C3)C1)C2)Nc1ccccn1 [Compound 119, 2-[(adamantan-1-yl)amino]-N-(pyridin-2-yl)acetamide]",–,1.58,8.80,8.80,149.60 ± mg/dL,103.40 ± mg/dL,104.80 ± mg/dL,148.60 ± mg/dL,107.60 ± mg/dL,118.60 ± mg/dL,−23.26,12250,0.64,40405* mg · dL^−1 · min,best functionality in enzyme inhibition activity,−46.99,23997,27068* mg · dL^−1 · min,1.26,1.417,"DPP-4 enzyme inhibition activity, in words (DPP-IV enzyme; listed as GLP-119): high level of potency both in vitro and in vivo; inhibition at 0.1 µM (DPP-IV enzyme; compound at 100 nM): 58%"
O=C(CNC12CC3CC(CC(O)(C3)C1)C2)Nc1cccc(C(F)(F)F)c1 [Compound 15],–,116,< 7.00,–,167.20 ± mg/dL,87.80 ± mg/dL,177.60 ± mg/dL,166.80 ± mg/dL,175.80 ± mg/dL,161.80 mg/dL,−26.07,13729,0.72,38926* mg · dL^−1 · min,did not show good activity; also recorded: generally weak,−39.13,19985,31080* mg · dL^−1 · min,0.72,1.18,% Inhibition (values marked *: inhibition at 1000 nM) (DPP-IV enzyme; compound at 1000 nM): 97.81* %
